According to US20060252733A1, “Betulin, betulin derivatives, betulinic acid and betulinic acid derivatives as novel therapeutics in the treatment of disease of lipid and/or glucose metabolism” (Novelix Pharmaceuticals, Inc., priority 2005, published 2006):
In brackets after ≈: the same amount, converted by molar mass. Several values for one entry are separate records, joined by “and”; a condition that tells them apart may be missing. Equal entries are not always repeated.

Legend:
[1] = test system: hepatic low density lipoprotein (LDL) receptors; conditions: animals; by increasing the expression of hepatic LDL receptors; cited from earlier work
[2] = test system: human melanoma cell line (518A2); test: Cell survival (cell counts) after 3 days of treatment; conditions: for Survival in % / Survival (%): 3 days, vs untreated controls (=100%)
Description: Induction of cell death was evaluated in a human melanoma cell line (518A2) in the presence of simvastatin and NVX-207 alone or in combination. […] After 3 days of treatment, cell numbers were counted. Percentages of survival given are cell numbers compared to untreated controls (=100%). Experiments were repeated three times. Mean values are given.

[3] = test system: human lung cancer cell line (A549); test: Global gene expression analysis (Affymetrix gene chips) after NVX-207 treatment; format: cell-based
Description: For global gene expression analysis, total RNA was isolated from sub-confluent cell cultures at 4 and 14 hours after addition of NVX-207. […] For each time point and concentration, respectively, total RNA form 3 equally treated cultures was pooled and used for gene chip analysis. The experiment was repeated once. Four and 14 hours after addition of NVX-207, cells were washed with PBS and lysed directly in the culture dish with RNA-Bee according to the manufacturers instructions. Total RNA was then analyzed by using Affymetrix gene chips according to the manufacturers instructions.

[4] = test system: human lung cancer cell line (A549); test: NVX-207 IC50/IC80 concentrations in A549 cell cultures; format: cell-based; conditions: A549 cells
Apolipoprotein A1 = molecular target: T1, Apolipoprotein A1 (Bos taurus, UniProt P15497); test: Identification of NVX-207 binding proteins (Sulfo-SBED biotin label transfer, 2-D gel, MALDI-TOF-MS); conditions: Fetal Calf Serum, NVX-207 coupled to Sulfo-SBED at 5 μg/ml, with or without 20-fold molar excess of unlabeled NVX-207
T1 construct: from tissue; host or cells: fetal calf serum
T1 sequence (P15497 25-265 limits assumed): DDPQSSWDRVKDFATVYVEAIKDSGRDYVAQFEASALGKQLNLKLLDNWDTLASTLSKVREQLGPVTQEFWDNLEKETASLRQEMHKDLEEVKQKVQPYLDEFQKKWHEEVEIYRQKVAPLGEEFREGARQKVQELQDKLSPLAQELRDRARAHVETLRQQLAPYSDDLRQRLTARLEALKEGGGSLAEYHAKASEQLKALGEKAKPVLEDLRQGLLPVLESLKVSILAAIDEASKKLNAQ
Source text: The presence of a primary amine group on NVX-207, a unique feature of this derivative compared to other known betulinic acid derived compounds, allows the coupling of other chemical compounds. A commercially available kit from Pierce was used to couple NVX-207 with biotin (Pierce-Sulfo-BED). This procedure allows the identification of NVX-207 binding proteins in protein lysates from any source. This procedure is generically illustrated in FIG. 2. In short, the amine groups of NVX-207 are modified via the Sulfo-NHS moiety of Sulfo-SBED. This derivatized NVX-207 is then incubated in the dark with a lysate or with a purified putative “prey” protein. The bait and prey complex is then captured or trapped by exposing the sample to high-intensity UV light, which activates the phenylazide moiety of Sulfo-SBED. This photoreactive group covalently links to the bound prey protein, capturing the interacting complex. […] The resulting biotin derivatized complex or prey protein can be detected using streptavidin-HRP or an anti-biotin antibody and chemiluminescent detection. […]
NVX-207 (at 5 μg/ml final concentration) coupled to […] with or without a 20-fold molar excess of unlabeled NVX-207 and resolved by 2-D gel electrophoresis. […] Several spots of similar molecular weight (˜24 kDa) and differing IP (in the range of 4.8 to 5.6) were detected by streptavidin-POD after 2-dimensional (2-D) gel electrophoresis.

SMILES: C=CC[C@@H]1[C@H](O)CC[C@@]2(C)[C@H]1CC[C@@H]1[C@@H]2CC[C@]2(C)[C@@H]([C@H](C)CCCC(C)C)CC[C@@H]12 [LY295427]
- plasma cholesterol levels [1]: reduce plasma cholesterol levels

SMILES: C=C(C)[C@@H]1CC[C@]2(C(=O)OCC(N)(CO)CO)CC[C@]3(C)[C@H](CC[C@@H]4[C@@]5(C)CC[C@H](OC(C)=O)C(C)(C)[C@@H]5CC[C@]43C)[C@@H]12 [NVX-207]
- effect on statin-induced cell death ([2]; 518A2 cells, in combination with simvastatin): reduces statin-induced cell death
- Survival in % ([2]; NVX-207 0.5 μg/ml): 94%
- Survival in % ([2]; NVX-207 1.0 μg/ml): 73%
- Survival in % ([2]; NVX-207 2.0 μg/ml): 26%
- Survival in % ([2]; NVX-207 4.0 μg/ml): 0%
- expression of the Table 1 genes with a functional role in lipid and/or glucose metabolism ([3]; 20 listed genes incl. LDL receptor, Insulin induced gene 1, 3-hydroxy-3-methylglutaryl-Coenzyme A reductase): NVX-207-Upregulated Genes with a Functional Role in Lipid
- Fold-Induction ([3]; gene: 3-hydroxy-3-methylglutaryl-Coenzyme A synthase 1 (soluble)): 1.63
- Fold-Induction ([3]; gene: 24-dehydro-cholesterol reductase): 1.25
- Fold-Induction ([3]; gene: 216814_at): 0.86
- Fold-Induction ([3]; gene: ALEX3 protein): 1.20
- Fold-Induction ([3]; gene: ATP synthase, H+ transporting, mitochondrial F0 complex, subunit s (factor B)): 0.87
- Fold-Induction ([3]; gene: Acetyl-Coenzyme A acetyltransferase 2 (acetoacetyl Coenzyme A thiolase)): 1.44
- Fold-Induction ([3]; gene: Adenylate cyclase 9): 1.50
- Fold-Induction ([3]; gene: Ankyrin repeat domain 6): 1.48
- Fold-Induction ([3]; gene: Apoptosis inhibitor 5): 1.21
- Fold-Induction ([3]; gene: Choline kinase): 1.16
- Fold-Induction ([3]; gene: Chromosome 22 open reading frame 20): 1.56
- Fold-Induction ([3]; gene: Cyclic nucleotide gated channel alpha 1): 0.79
- Fold-Induction ([3]; gene: D15F37 (pseudogene)): 1.39
- Fold-Induction ([3]; gene: DEAD (Asp-Glu-Ala-Asp) box polypeptide 54): 0.66
- Fold-Induction ([3]; gene: Exportin 6): 0.89
- Fold-Induction ([3]; gene: Farnesyl-diphosphate farnesyltransferase 1): 1.89
- Fold-Induction ([3]; gene: Fatty-acid-Coenzyme A ligase, long-chain 3): 1.31
- Fold-Induction ([3]; gene: Glyoxalase I): 1.12
- Fold-Induction ([3]; gene: H63 breast cancer expressed gene): 0.66
- Fold-Induction ([3]; gene: HMT1 hnRNP methyltransferase-like 1): 0.62
- Fold-Induction ([3]; gene: Haspin): 0.92
- Fold-Induction ([3]; gene: Heterogeneous nuclear ribonucleoprotein A2/B1): 1.30
- Fold-Induction ([3]; gene: Homeo box B2): 1.26
- Fold-Induction ([3]; gene: Homo sapiens cDNA FLJ11590 fis, clone HEMBA1003758.): 1.56
- Fold-Induction ([3]; gene: Homo sapiens cDNA FLJ12075 fis, clone HEMBB1002425.): 1.50
- Fold-Induction ([3]; gene: Homo sapiens cDNA FLJ12932 fis, clone NT2RP2004897.): 1.55
- Fold-Induction ([3]; gene: Homo sapiens cDNA FLJ13272 fis, clone OVARC1001004.): 1.58
- Fold-Induction ([3]; gene: Homo sapiens cDNA FLJ26120 fis, clone SYN00419): 2.26
- Fold-Induction ([3]; gene: Homo sapiens cDNA FLJ33420 fis, clone BRACE2020028.): 1.41
- Fold-Induction ([3]; gene: Homo sapiens cDNA FLJ46153 fis, clone TESTI4001037): 0.81
- Fold-Induction ([3]; gene: Homo sapiens cDNA: FLJ23159 fis, clone LNG09628): 1.44
- Fold-Induction ([3]; gene: Homo sapiens full length insert cDNA clone ZE03A06): 0.70
- Fold-Induction ([3]; gene: Homo sapiens mRNA, cDNA DKFZp586O031 (from clone DKFZp586O031)): 1.13
- Fold-Induction ([3]; gene: Homo sapiens mRNA, cDNA DKFZp686L01105 (from clone DKFZp686L01105)): 2.37 and 2.09 and 1.73
- Fold-Induction ([3]; gene: Homo sapiens mRNA, cDNA DKFZp779K0112 (from clone DKFZp779K0112)): 1.48
- Fold-Induction ([3]; gene: Homo sapiens transcribed sequence with weak similarity to protein ref: NP_060265.1): 1.46 and 1.22
- Fold-Induction ([3]; gene: Homo sapiens, clone IMAGE: 5314747, mRNA): 1.77
- Fold-Induction ([3]; gene: Homo sapiens, clone IMAGE: 6205812, mRNA): 1.85
- Fold-Induction ([3]; gene: Hypothetical protein BC008207): 0.86
- Fold-Induction ([3]; gene: Hypothetical protein DKFZp761A132): 0.70
- Fold-Induction ([3]; gene: Hypothetical protein FLB8034 PRO2158): 1.45
- Fold-Induction ([3]; gene: Hypothetical protein FLJ10997 (ZNF654 zinc finger protein 654 [Homo sapiens])): 1.16
- Fold-Induction ([3]; gene: Hypothetical protein FLJ11577): 1.35
- Fold-Induction ([3]; gene: Hypothetical protein FLJ13611): 1.39
- Fold-Induction ([3]; gene: Hypothetical protein FLJ14639): 1.24
- Fold-Induction ([3]; gene: Hypothetical protein FLJ38499): 1.32
- Fold-Induction ([3]; gene: Hypothetical protein LOC125893): 1.34
- Fold-Induction ([3]; gene: Hypothetical protein LOC126661): 1.49
- Fold-Induction ([3]; gene: Hypothetical protein LOC283680): 1.26
- Fold-Induction ([3]; gene: Hypothetical protein MAC30): 1.46
- Fold-Induction ([3]; gene: Hypothetical protein MGC34695): 1.61
- Fold-Induction ([3]; gene: Hypothetical protein PRO1496): 1.46
- Fold-Induction ([3]; gene: Insulin induced gene 1): 2.56
- Fold-Induction ([3]; gene: Isopentenyl-diphosphate delta isomerase): 1.78
- Fold-Induction ([3]; gene: Jerky homolog-like (mouse)): 1.23
- Fold-Induction ([3]; gene: KIAA0101 gene product): 1.23
- Fold-Induction ([3]; gene: KIAA0335 gene product): 1.38
- Fold-Induction ([3]; gene: KIAA1450 protein): 1.21
- Fold-Induction ([3]; gene: Latrophilin 3): 0.77
- Fold-Induction ([3]; gene: Lipin 1): 1.88
- Fold-Induction ([3]; gene: Low density lipoprotein receptor (familial hypercholesterolemia)): 1.78
- Fold-Induction ([3]; gene: Machado-Joseph disease (spinocerebellar ataxia 39)): 1.45
- Fold-Induction ([3]; gene: Melan-A): 0.60
- Fold-Induction ([3]; gene: Mitochondrial ribosomal protein L30): 1.42
- Fold-Induction ([3]; gene: Mucin 4, tracheobronchial): 0.79
- Fold-Induction ([3]; gene: Mucolipin 3): 1.39
- Fold-Induction ([3]; gene: Natural killer-tumor recognition sequence): 1.45 and 1.28
- Fold-Induction ([3]; gene: Neurolysin (metallopeptidase M3 family)): 1.41
- Fold-Induction ([3]; gene: Nicotinamide nucleotide adenylyltransferase 2): 0.73
- Fold-Induction ([3]; gene: Pantothenate kinase 3): 1.23
- Fold-Induction ([3]; gene: Phorbol-12-myristate-13-acetate-induced protein 1): 1.26
- Fold-Induction ([3]; gene: Phosphodiesterase 4A, cAMP-specific (phosphodiesterase E2 dunce homolog, Drosophila)): 0.78
- Fold-Induction ([3]; gene: Pinin, desmosome associated protein): 1.17
- Fold-Induction ([3]; gene: Protocadherin 11 Y-linked): 1.37
- Fold-Induction ([3]; gene: Putative translation initiation factor): 1.14
- Fold-Induction ([3]; gene: Pyruvate dehydrogenase phosphatase isoenzyme 2): 1.40
- Fold-Induction ([3]; gene: Receptor-interacting factor 1): 1.10
- Fold-Induction ([3]; gene: Ring finger protein 125 (T-cell RING activation protein 1, TRAC-1)): 3.36
- Fold-Induction ([3]; gene: SKI-interacting protein): 1.10
- Fold-Induction ([3]; gene: SOCS box-containing WD protein SWiP-1): 1.20
- Fold-Induction ([3]; gene: SP140 nuclear body protein): 0.78
- Fold-Induction ([3]; gene: SPTF-associated factor 65 gamma): 0.69
- Fold-Induction ([3]; gene: Solute carrier family 2 (facilitated glucose transporter), member 6): 1.76
- Fold-Induction ([3]; gene: Solute carrier family 7, (cationic amino acid transporter, y+ system) member 11): 1.67
- Fold-Induction ([3]; gene: Squalene epoxidase): 1.60
- Fold-Induction ([3]; gene: Stearoyl-CoA desaturase (delta-9-desaturase)): 1.41
- Fold-Induction ([3]; gene: Sterol-C4-methyl oxidase-like): 1.87
- Fold-Induction ([3]; gene: Sterol-C5-desaturase (ERG3 delta-5-desaturase homolog, fungal)-like): 1.37
- Fold-Induction ([3]; gene: Surfactant, pulmonary-associated protein B): 1.43
- Fold-Induction ([3]; gene: Syntaxin 16): 0.86
- Fold-Induction ([3]; gene: Thyroid hormone receptor interactor 11): 1.70
- Fold-Induction ([3]; gene: Tumor necrosis factor (ligand) superfamily, member 9): 1.47
- Fold-Induction ([3]; gene: Ubiquitin specific protease 6 (Tre-2 oncogene)): 1.38
- Fold-Induction ([3]; gene: Ubiquitin specific protease 32): 1.25
- Fold-Induction ([3]; gene: Zinc finger protein 226): 1.46
- Fold-Induction ([3]; gene: Zinc finger protein 430): 1.24
- upregulation of INSIG-1 ([3]; within 4 hours of the addition of NVX-207): up to 3 fold
- IC50 [4]: 1.5 µg/mL (≈ 2.49 µM)
- IC80 [4]: 2.0 µg/mL (≈ 3.32 µM)
- binding to Apolipoprotein A1 (Apolipoprotein A1): binds to Apolipoprotein A1

SMILES: CCC(C)(C)C(=O)O[C@H]1C[C@@H](C)C=C2C=C[C@H](C)[C@H](CC[C@@H]3C[C@@H](O)CC(=O)O3)[C@H]21 [Simvastatin, reference compound]
- Survival (%) ([2]; Simvastatin 0.5 μmol): 96%
- Survival (%) ([2]; Simvastatin 1.0 μmol): 40%
- Survival (%) ([2]; Simvastatin 2.0 μmol): 12%
- Survival (%) ([2]; Simvastatin 4.0 μmol): 3%
